Experiments:
[1] = test system: S-RBD-ACE2 interaction, AH109 (pAD-S-RBD+pBD-ACE2); assay type: cell-based, SARS-CoV-2 S-RBD, human ACE2 (in yeast)
[2] = molecular target: S-RBD-ACE2 interaction, AH109 (pAD-S-RBD+pBD-ACE2) (UniProt P0DTC2+Q9BYF1); assay type: cell-based, SARS-CoV-2 S-RBD, human ACE2 (in yeast)

SMILES | Difference of MICs among AH109 (pAD-S-RBD+pBD-ACE2) and AH109 (pAD-T+pBD-53) [1] [fold] | MIC against AH109 (pAD-S-RBD+pBD-ACE2) [2] [μg/mL]
Cc1ccc(N(Sc2ccc(Cl)cc2)C2C=CS(=O)(=O)C2)cc1 (stereo not drawn) [IMB-4A] | 2 | –
CC(C)CCC[C@@H](C)[C@H]1CC[C@H]2[C@@H]3CC[C@H]4C[C@@H](O[C@@H]5O[C@H](COS(=O)(=O)O)[C@@H](O[C@H]6O[C@H](COS(=O)(=O)O)[C@@H](O[C@H]7O[C@H](COS(=O)(=O)O)[C@@H](O[C@H]8O[C@H](COS(=O)(=O)O)[C@@H](OS(=O)(=O)O)[C@H](OS(=O)(=O)O)[C@H]8OS(=O)(=O)O)[C@H](OS(=O)(=O)O)[C@H]7OS(=O)(=O)O)[C@H](OS(=O)(=O)O)[C@H]6OS(=O)(=O)O)[C@H](OS(=O)(=O)O)[C@H]5OS(=O)(=O)O)CC[C@]4(C)[C@H]3CC[C@]12C [Pixatimod, reference compound] | – | 1.56
O=C(c1ccc(N2CCCCS2(=O)=O)cc1)N1CCN(C(=O)c2ccco2)CC1 [IMB-1C] | 2 | –

From article PMC11765512 (International Journal of Molecular Sciences, 2025)
